According to patent publication US20210316003A1 (Immunomedics, Inc., priority 2020, published 2021):

Test system: patients with diverse metastatic cancers
Test: Phase I trial and phase II extension in diverse epithelial cancers: best response and time to progression
Format: in vivo, human
Text: The present Example reports the initial Phase I trial of 25 patients (pts) who had failed multiple prior therapies (some including topoisomcrasc-I/II inhibiting drugs), and the ongoing Phase II extension now reporting on 69 pts, including in colorectal (CRC), small-cell and non-small cell lung (SCLC, NSCLC, respectively), triple-negative breast (TNBC), pancreatic (PDC), esophageal, gastric, prostate, ovarian, renal, urinary bladder, head/neck and hepatocellular cancers. Patients were refractory/relapsed after standard treatment regimens for metastatic cancer. […]
A total of 69 patients (including 25 patients in Phase I) with diverse metastatic cancers having a median of 3 prior therapies were reported. Eight patients had clinical progression and withdrew before CT assessment. Thirteen CT-assessable pancreatic cancer patients were separately reported. The median TTP (time to progression) in PDC patients was 11.9 wks (range 2 to 21.4 wks) compared to median 8 wks TTP for the preceding last therapy.
A total of 48 patients with diverse cancers had at least 1 CT-assessment from which Best Response and Time to Progression (TTP) were determined. […] For SCLC (small cell lung cancer), of 4 assessable patients there were 2 PR, 0 SD and 2 PD for a total response of 2/4 (50%). For CRC (colorectal cancer), of 18 assessable patients there were 1 PR, 11 SD and 6 PD for a total response of 12/18 (67%). For esophageal cancer, of 4 assessable patients there were 1 PR, 2 SD and 1 PD for a total response of 3/4 (75%). For NSCLC (non-small cell lung cancer), of 5 assessable patients there were 1 PR, 3 SD and 1 PD for a total response of 4/5 (80%). Over all patients treated, of 48 assessable patients there were 7 PR, 27 SD and 14 PD for a total response of 34/48 (71%).

[1] = 48 assessable pts (excluding PDC)
[2] = 48 assessable pts (excluding PDC), listed as hRS7-SN-38
[3] = CRC, person, after 10 months of treatment
[4] = esophageal cancer, 4 assessable patients

## sacituzumab govitecan
[1]
  Partial response (PR), % of patients: 15%
  Stable disease (SD), % of patients: 56%
  Stable disease (SD), number of patients: 27
  Total response [PR+SD], % of patients: 79%
  Total response [PR+SD], number of patients: 38
[2]
  Total response [PR+SD], % of patients: 71%
  Total response [PR+SD], number of patients: 34/48
CRC, 12/18
  Total response [PR+SD]: 67%
CRC, 18 assessable patients
  PD, number of patients: 6
  PR, number of patients: 1
[3]
  CEA after treatment (decrease from 781), single patient: 26.5 ng/mF
  Maximum reduction in target lesions, single patient: 65%
CRC, person, starting dose 8 mg/kg
  Reduction in target lesions on first CT assessment (PR), single patient: 37%
NSCLC, 4/5
  Total response [PR+SD]: 80%
NSCLC, 5 assessable patients
  PD, number of patients: 1
  PR, number of patients: 1
NSCLC, person, after 6th dose
  Primary target lesion size at first CT (from 5.6 cm), single patient: 3.2 cm
SCLC, 2/4
  Total response [PR+SD]: 50%
SCLC, 4 assessable patients
  PD, number of patients: 2
  PR, number of patients: 2
SCLC, person, 12 mg/kg reduced to 6.8 mg/kg, after two months
  Reduction in target lesions, single patient: 38%
TNBC, 6/8
  Total response [PR+SD]: 75%
TNBC, 8 assessable patients
  PD, number of patients: 2
  PR, number of patients: 2
all, 48 assessable patients
  PD, number of patients: 14
  PR, number of patients: 7
Esophageal cancer, 3/4
  Total response [PR+SD]: 75%
[4]
  PD, number of patients: 1
  PR, number of patients: 1
